Consider two molecules from ChEMBL document CHEMBL4325904 (Eur J Med Chem, 2019).

One test deals with Histone deacetylase 1 (Homo sapiens, UniProt Q13547). The test is described as follows: Inhibition of recombinant full length C-terminal FLAG/His-tagged human HDAC1 (1 to 482 residues) expressed in sf21 cells using RHK-K(Ac)-AMC as substrate by fluorimetric assay.
The species entered for a further test is Homo sapiens. In words: Selectivity ratio of IC50 for recombinant C-terminal His-tagged human HDAC5 (656 to 1122 residues) to IC50 for recombinant N-terminal GST-tagged human HDAC6 (1 to 1215 residues).
In a further test the target is T1, Histone deacetylase 7 (Homo sapiens, UniProt Q8WUI4).
T1 sequence (Q8WUI4 whole entry): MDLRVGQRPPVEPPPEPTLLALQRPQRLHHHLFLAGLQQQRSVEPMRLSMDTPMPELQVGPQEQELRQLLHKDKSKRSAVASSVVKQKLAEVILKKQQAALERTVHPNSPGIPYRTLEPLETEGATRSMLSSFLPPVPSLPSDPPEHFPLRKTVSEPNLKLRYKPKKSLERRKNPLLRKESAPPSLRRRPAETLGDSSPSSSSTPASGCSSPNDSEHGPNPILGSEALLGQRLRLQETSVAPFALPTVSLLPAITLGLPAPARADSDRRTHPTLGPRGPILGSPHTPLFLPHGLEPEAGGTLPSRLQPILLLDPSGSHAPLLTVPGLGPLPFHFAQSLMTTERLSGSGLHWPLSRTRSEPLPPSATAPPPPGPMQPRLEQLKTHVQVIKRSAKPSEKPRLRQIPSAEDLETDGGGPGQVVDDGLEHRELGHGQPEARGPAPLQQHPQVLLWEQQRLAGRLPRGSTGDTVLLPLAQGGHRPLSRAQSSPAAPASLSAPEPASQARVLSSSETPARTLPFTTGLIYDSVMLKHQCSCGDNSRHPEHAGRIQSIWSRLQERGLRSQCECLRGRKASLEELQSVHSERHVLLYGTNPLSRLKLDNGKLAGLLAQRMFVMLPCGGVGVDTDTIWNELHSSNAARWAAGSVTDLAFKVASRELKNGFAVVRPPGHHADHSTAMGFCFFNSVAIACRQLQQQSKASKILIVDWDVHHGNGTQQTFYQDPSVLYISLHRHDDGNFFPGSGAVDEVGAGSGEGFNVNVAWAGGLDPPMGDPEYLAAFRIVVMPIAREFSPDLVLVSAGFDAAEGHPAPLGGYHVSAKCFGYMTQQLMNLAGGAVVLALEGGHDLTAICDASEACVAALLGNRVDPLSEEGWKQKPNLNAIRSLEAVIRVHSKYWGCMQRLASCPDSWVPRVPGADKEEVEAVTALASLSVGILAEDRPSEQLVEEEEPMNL
The test is described as follows: Inhibition of recombinant N-terminal GST-tagged human HDAC7 (518 to 991 residues) expressed in Baculovirus infected insect cells using Boc-K(Ac)-AMC as substrate by fluorimetric assay.

Test [1] addresses T2, Protein deacetylase HDAC6 (Homo sapiens, UniProt Q9UBN7).
T2 sequence (Q9UBN7 whole entry): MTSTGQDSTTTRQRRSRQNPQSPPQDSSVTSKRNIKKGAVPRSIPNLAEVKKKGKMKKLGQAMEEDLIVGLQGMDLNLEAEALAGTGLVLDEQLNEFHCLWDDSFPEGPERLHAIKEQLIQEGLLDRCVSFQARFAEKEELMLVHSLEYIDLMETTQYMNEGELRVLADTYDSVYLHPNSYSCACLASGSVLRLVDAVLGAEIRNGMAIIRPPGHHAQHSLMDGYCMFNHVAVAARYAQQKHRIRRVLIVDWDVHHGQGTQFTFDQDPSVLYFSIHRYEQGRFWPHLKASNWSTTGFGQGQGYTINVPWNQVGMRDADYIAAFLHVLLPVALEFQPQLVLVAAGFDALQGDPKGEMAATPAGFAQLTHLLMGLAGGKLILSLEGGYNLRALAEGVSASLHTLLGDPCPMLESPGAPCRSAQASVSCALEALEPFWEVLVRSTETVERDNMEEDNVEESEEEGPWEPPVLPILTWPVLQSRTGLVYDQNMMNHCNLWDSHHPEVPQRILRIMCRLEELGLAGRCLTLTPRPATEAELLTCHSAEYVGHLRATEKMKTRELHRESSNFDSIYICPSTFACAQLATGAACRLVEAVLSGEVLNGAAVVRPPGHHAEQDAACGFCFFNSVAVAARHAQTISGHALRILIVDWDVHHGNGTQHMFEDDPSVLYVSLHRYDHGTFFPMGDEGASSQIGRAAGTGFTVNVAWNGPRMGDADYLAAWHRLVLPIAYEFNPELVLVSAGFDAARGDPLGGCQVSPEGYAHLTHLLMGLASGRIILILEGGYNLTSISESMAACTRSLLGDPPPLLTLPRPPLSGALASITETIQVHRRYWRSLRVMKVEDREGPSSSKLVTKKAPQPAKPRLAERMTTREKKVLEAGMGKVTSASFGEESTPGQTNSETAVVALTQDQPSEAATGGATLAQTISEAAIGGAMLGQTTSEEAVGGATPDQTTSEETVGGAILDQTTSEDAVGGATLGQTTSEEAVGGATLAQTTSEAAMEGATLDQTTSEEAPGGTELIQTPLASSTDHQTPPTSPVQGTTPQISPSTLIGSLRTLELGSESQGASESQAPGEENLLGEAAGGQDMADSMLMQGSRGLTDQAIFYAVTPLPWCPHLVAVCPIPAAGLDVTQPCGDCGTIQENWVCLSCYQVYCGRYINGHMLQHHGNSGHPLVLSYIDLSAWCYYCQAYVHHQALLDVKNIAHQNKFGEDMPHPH
The test is described as follows: Inhibition of recombinant N-terminal GST-tagged human HDAC6 (1 to 1215 residues) expressed in Baculovirus infected insect cells using RHKK-Ac as substrate by fluorimetric assay.

In the next test the target is Histone deacetylase 4 (Homo sapiens, UniProt P56524). The test is described as follows: Inhibition of recombinant N-terminal GST-tagged /C-terminal His-tagged human HDAC4 (627 to 1084 residues) expressed in Baculovirus infected insect cells using Boc-Lys(trifluoroacetyl)-AMC as substrate by fluorimetric assay.

SMILES strings stand for the structures.

Chain of Histone deacetylase 4 (P56524 whole entry, the tested form may be a part): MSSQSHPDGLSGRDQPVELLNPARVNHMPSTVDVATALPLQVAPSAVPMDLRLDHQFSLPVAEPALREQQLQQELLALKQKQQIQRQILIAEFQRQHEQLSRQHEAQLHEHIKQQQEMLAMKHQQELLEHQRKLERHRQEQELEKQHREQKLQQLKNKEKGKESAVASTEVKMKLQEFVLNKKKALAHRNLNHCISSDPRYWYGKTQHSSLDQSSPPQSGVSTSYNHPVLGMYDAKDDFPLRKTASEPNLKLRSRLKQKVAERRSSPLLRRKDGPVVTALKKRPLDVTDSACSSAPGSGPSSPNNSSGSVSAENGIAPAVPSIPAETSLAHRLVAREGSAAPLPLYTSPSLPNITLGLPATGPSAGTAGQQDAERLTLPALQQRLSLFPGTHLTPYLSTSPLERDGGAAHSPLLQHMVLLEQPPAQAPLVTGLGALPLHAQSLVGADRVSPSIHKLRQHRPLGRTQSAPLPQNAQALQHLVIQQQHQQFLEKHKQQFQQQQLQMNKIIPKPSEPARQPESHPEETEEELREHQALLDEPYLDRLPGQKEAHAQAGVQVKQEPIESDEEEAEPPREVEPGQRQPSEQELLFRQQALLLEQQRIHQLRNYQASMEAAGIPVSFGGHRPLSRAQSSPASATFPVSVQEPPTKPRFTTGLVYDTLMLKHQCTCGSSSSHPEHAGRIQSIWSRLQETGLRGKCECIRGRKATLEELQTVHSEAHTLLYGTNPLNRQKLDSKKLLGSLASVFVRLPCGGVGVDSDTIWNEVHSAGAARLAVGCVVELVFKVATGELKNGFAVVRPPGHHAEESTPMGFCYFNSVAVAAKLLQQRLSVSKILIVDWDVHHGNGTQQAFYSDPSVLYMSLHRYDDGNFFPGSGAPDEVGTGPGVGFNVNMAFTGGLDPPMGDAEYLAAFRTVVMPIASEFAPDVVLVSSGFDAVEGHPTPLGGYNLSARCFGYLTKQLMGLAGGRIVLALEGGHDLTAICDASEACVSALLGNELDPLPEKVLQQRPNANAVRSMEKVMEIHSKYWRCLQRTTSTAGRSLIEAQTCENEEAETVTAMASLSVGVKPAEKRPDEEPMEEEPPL
Chain of Histone deacetylase 1 (Q13547 whole entry, the tested form may be a part): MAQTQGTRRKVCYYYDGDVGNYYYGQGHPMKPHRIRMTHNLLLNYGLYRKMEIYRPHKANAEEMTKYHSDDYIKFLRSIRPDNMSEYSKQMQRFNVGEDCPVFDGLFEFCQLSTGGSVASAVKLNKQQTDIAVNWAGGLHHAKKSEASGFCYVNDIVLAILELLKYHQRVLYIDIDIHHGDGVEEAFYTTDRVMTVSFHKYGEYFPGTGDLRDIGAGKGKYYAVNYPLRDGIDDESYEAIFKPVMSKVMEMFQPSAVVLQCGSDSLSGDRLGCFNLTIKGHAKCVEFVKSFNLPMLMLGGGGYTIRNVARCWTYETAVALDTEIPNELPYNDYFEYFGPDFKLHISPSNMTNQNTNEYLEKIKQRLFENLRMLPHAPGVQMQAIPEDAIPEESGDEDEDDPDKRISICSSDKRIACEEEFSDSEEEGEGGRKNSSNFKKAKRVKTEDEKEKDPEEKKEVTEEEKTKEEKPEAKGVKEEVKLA

Regarding `O=C(CCCCCN1C(=O)c2cccc3c(NCc4ccccc4)ccc(c23)C1=O)NO`, the IC50 was 1980 nM at Histone deacetylase 1, 3200 nM at Histone deacetylase 7, 3.5 nM in test [1] and 5500 nM at Histone deacetylase 4. In the test filed under Homo sapiens, the Ratio IC50 turned out to be 970.
Taken in the same sequence, the figures for `CCCNc1ccc2c3c(cccc13)C(=O)N(CCCCCC(=O)NO)C2=O` were 590 nM, 9400 nM, 4.8 nM, above 10000 nM and 1100.

One may read the IC50 as the concentration that inhibits the measured activity by half.
